Data taken from US9435811B2, “Inducer of chondrocyte proliferation and differentiation” (ORIENTAL YEAST CO., LTD, priority 2008, dated 2016).
Positions of bridges follow the written chain, without caps; N, C: chain ends. No end group written: not given here.

B1: TGF-β3: TGF-β3 (R&D), protein belonging to the TGF-β superfamily (protein, UniProt P10600 301-412, looked up)
Transforming growth factor …: ALDTNYCFRNLEENCCVRPLYIDFRQDLGWKWVHEPKGYYANFCSGPCPYLRSADTTHSTVLGLYNTLNPEASASPCCVPQDLEPLTILYYVGRTPKVEQLSNMVVKSCKCS

Tests used:
[1] = test system: human mesenchymal stem cells; experiment: Induction of human mesenchymal stem cell differentiation, alcian blue staining; type: cell-based; settings: 100 μM peptide D, 14 days
Method: Human mesenchymal stem cells were seeded at 5×10^4 cells/well in 48-well plate (IWAKI). The culture supernatant was removed 24 hours later, the medium was replaced with a chondrocyte differentiation induction medium (Lonza), and the medium was replaced with fresh medium every 3 or 4 days. Simultaneously, peptide D was added at 100 μM (the group to which peptide D was administered). Further, a group cultured with 100 μM peptide D and 1 ng/ml BMP-4 (R&D) was examined. BMP-4 was added at 1 ng/ml as a positive control group. After 14 days, these cells were fixed in 10% neutral buffered formalin. After fixation, the cells were stained with an alcian blue solution for 4 hours, and the culture plate was photographed. Moreover the pigment was eluted using a 6M guanidinium hydrochloride solution from the culture plate. The eluate (100 μl) was moved to a new 96-well plate, and measured the absorbance at 620 nm by microplate reader (BMG Labtech).

ATDC5 cells [2] = experiment: Induction of differentiation of ATDC5 cells by peptide D, alcian blue staining; type: cell-based, mouse; settings: peptide D 25 μM and 100 μM, 14 days
Method: The culture cells (ATDC5) derived from a mouse chondrogenic EC (embryonal carcinoma) cell was provided by Professor Hiraki and Associate Professor Shukunami in the Institute for Frontier Medical Sciences, Kyoto University. DMEM/F-12 medium (Cellgro) containing 5% FBS (Nichirei) was used as a maintenance medium.
ATDC5 cells were seeded at 2×10^4 cells/well in a 48-well plate (IWAKI). The culture supernatant was removed 24 hours later, and DMEM/F-12 medium containing 10 ng/ml insulin (Roche) and transferrin (Roche) were added. The medium was replaced with fresh medium every 3 or 4 days.
Simultaneously, peptide D was added at 25 μM and 100 μM. One ng/ml and 5 ng/ml BMP-4 (R&D) were added as positive control. In order to examine the synergistic effects of peptide D and BMP-4, further, 25 μM peptide D and 1 ng/ml BMP-4 were added. After 14 days, these cells were fixed in 10% neutral buffered formalin. After fixation, the cells were stained with an alcian blue solution for 4 hours, and the culture plate was photographed.

ATDC5 cells [3] = experiment: RT-PCR analysis of chondrocytic factors in ATDC5 cells; type: cell-based, mouse; settings: 200 μM peptide D
Method: Mouse prechondrocytes, ATDC5 cells (5×10^4 cells) were seeded in a 6-cm dish (IWAKI) and cultured in the presence of a cartilage differentiation induction medium containing 10 ng/ml insulin and transferrin for 7 days and for 14 days. The peptide D group was added at 200 μM peptide D, and 5 ng/ml of BMP-4 was added to the positive control group. The cells were washed with PBS after culture, the cells were dissolved in 1 ml TRIZOL […], and the solution was obtained. After 5 min at room temperature, 0.2 ml of chloroform (Wako) was added, followed by vigorous inversion mixing and centrifugation at 4° C. and 12,000×g for 15 minutes. The supernatant was collected in a new tube, and was added to 0.5 ml of isopropanol (Nacalai), followed by inversion mixing. The resultant was left at room temperature for 10 minutes and centrifuged at 4° C. and 12,000×g for 10 minutes. The supernatant was discarded, and the resultant was added to 70% ethanol. After dry-up, RNA was dissolved in 87.5 μl of DEPC water, 10 μl of RDD buffer and 2.5 μl of DNase, and the mixture was allowed to stand at room temperature for 10 minutes. The RNA sample was cleaned by the RNeasy MinElute Cleanup Kit (Qiagen), and the concentration of the obtained RNA was measured using NanoDrop. The obtained RNA (250 ng) was electrophoresed on 1% agarose gel, checked degradation of RNA, and undegradated RNA samples (250 ng each) were used in RT-PCR. RT-PCR was carried out using the ThermoScript RT-PCR System (Invitrogen) and random primers.
After cDNA was synthesized, PCR was carried out using primers specific for the α1 chains of mouse type II collagen (mCol 2α1), mouse type X collagen (mCol X), and mouse aggrecan (mAggrecan). PCR was carried out using mouse GAPDH-specific primers for standardization. The sequences of PCR primers used are shown below. […]
The sample obtained after PCR was electrophoresed on 2% agarose gel, and a specific band was detected by UV with the use of ethidium bromide staining (FIG. 3A and FIG. 4A). The obtained image was analyzed using the CSAnalyzer (ATTO).

ATDC5 cells [4] = experiment: GeneChip analysis using ATDC5 cells; type: cell-based, mouse; settings: 100 μM peptide D, signal ratio to control group
Method: The peptide described in Example 1 was used. The ATDC5 cells described in Example 2 were used as cultured cells. The ATDC5 cells were seeded in a 6-cm dish (IWAKI) at 1×10^5 cells/well. The culture supernatant was removed 72 hours later, and DMEM/F-12 medium containing 10 ng/ml insulin (Roche) and 10 ng/ml transferrin (Roche) was added. The medium was replaced with fresh medium every 3 or 4 days.
Simultaneously, peptide D was added at 100 μM. The medium was removed 4 days and 7 days after the induction of differentiation. The cells were washed with PBS, and RNA of these cells was obtained using the Absolutely RNA Miniprep Kit (Stratagene) 7 days after the induction of differentiation. The extracted RNA was subjected to GeneChip analysis (Affimetrix, Kurabo).

[5] = test system: human mesenchymal stem cells; experiment: Three-dimensional culture using human mesenchymal stem cells; type: cell-based
Method: Chondrocytes are three-dimensionally cultured induce […]. Three dimensional culture system relatively reflected the natural conditions. Human mesenchymal stem cells were seeded at 2.5×10^5 cells in 15-ml tubes (TPP) and the cells were collected by centrifuged at 1,000 rpm and room temperature for 4 minutes. The supernatant was removed and the medium was replaced with 0.5 ml chondrocyte differentiation induction medium (Lonza) with 10 ng/ml TGF-β3 (R&D). The medium was replaced with fresh medium every 3 or 4 days. Simultaneously, peptide D was added at 50 μM and at 150 μM (i.e., a low-dose peptide D group and a high-dose peptide D group). After 14 days, the cells were fixed in 4% PFA (Wako), photographed under a microscope (FIG. 8). A pellet was embedded in paraffin, and the sample slide was prepared, followed by alcian blue staining and safranin 0 staining (FIG. 9).
2.5×10^5 human mesenchymal stem cells were cultured in the presence of 40 μM peptide D and 10 ng/ml TGF-β3 with cartilage differentiation induction medium for 21 days. After the pellets were fixed in 4% PFA, the pellet was photographed under a microscope (FIG. 10). After the pellet had been embedded in paraffin, the sample slide was prepared and stained with alcian blue and safranin 0 (FIG. 11).
After the pellets were fixed in 4% PFA, the pellet was photographed under a microscope (FIG. 12). After the pellet had been embedded in paraffin, the sample slide was prepared and stained with alcian blue and safranin O (FIG. 13).

[6] = test system: human mesenchymal stem cells; experiment: GeneChip analysis using human mesenchymal stem cells; type: cell-based; settings: for aggrecan expression level: 10 ng/ml TGF-β3; for expression levels of Sox9 compared with the control group: 24 hours and 96 hours after the addition
Method: Human mesenchymal stem cells were seeded in a 6-well plate (Nunc) at 1×10^5 cells/well, the culture supernatant was discarded 96 hours later, and 2 ml of a cartilage differentiation induction medium was added. The control group, the 40 μM peptide D group, the 10 ng/ml TGF-β3 group, and the 40 μM peptide D+10 ng/ml TGFβ3 group were prepared. Each culture medium was replaced 24 hours after the stimulation. The cells were dissolved in 1 ml of TRIZOL (Invitrogen) 96 hours after the stimulation, and RNA was isolated. The isolated RNA was used for GeneChip analysis (Affimetrix, Kurabo).

RANKL = molecular target: T1, RANKL (Homo sapiens, UniProt O14788); settings: Aoki et al., J. Clin. Invest., 116: 1525, 2006; cited from earlier work
T1 sequence (O14788 140-317 limits assumed): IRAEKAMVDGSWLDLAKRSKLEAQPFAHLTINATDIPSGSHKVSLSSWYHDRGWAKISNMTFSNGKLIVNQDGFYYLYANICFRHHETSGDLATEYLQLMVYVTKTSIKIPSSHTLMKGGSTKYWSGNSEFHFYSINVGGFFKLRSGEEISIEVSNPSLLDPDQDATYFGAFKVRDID

[7] = peptide D 50 μM and 150 μM, medium with 10 ng/ml TGF-β3, 14 days
[8] = 24 hours after the addition, 40 μM peptide D
[9] = 96 hours after the addition, 40 μM peptide D

Molecule | absorbance of the eluate at 620 nm (alcian blue pigment) versus control group [1] | alcian blue positive cells compared with control ([1]; chondrocyte differentiation induction medium) | number of alcian blue positive nodules (ATDC5 cells [2]) | aggrecan expression level (ATDC5 cells [3]; day 7, standardized with GAPDH) | expression level of the α chain of type II collagen compared with the control (ATDC5 cells [3]; day 7, standardized with GAPDH) | expression level of type X collagen (ATDC5 cells [3]; day 14, standardized with GAPDH) | expression level of BMP-7 (ATDC5 cells [4]) | expression levels of CTGF, PDGF, TGFβ1, fibromodulin and receptors (PDGFR1, FGFR2) (ATDC5 cells [4]) | expression levels of the α chains of type II, IX, and XI collagens (ATDC5 cells [4]) | expression of asporin, IGFbp2, IGFbp6, and ADAMTS5 (ATDC5 cells [4]) | alcian blue or safranin O staining of 3-dimensional pellets [5, 7] | pellet size [5, 7] | IGF2R and versican expression ([6]; 40 μM peptide D, 24 hours later) | IGF-1, LTBP2, and TGFβ1 expression levels ([6]; 40 μM peptide D, 96 hours later) | aggrecan expression level [6, 8] | expression levels of Sox9 compared with the control group [6] | aggrecan expression level [6, 9] | binding to RANKL (RANKL) | pellet size ([5]; 21 days, 40 μM peptide D, 10 ng/ml TGF-β3, 100 ng/ml BMP-2)
peptide D: cyclic peptide of 9 amino acid residues, SEQ ID NO: 7, two cysteine residues bound by a disulfide bond; binds to RANKL (YCWSQYLCY; disulfide 2-8 (inferred)) | significant increase | increased | increased in a dose dependent manner | increased | significantly increased | particularly increased | increased | increased | increased | inhibited | positive stained | increased the pellet size in a dose dependent manner | elevated | elevated | elevated | elevated | elevated expression level was maintained | binds to RANKL | –
B1 | – | – | – | – | – | – | – | – | – | – | – | – | – | – | equivalent to that of the control group | elevated | lower than that of the control group | – | did not change
